Where “and” joins values, the source holds several entries; their conditions need not be identical. Identical values can stand only once. Toxic doses and inconclusive results are not listed. How the source made its calls: active means survival T/C of 150% or more; inactive means T/C below 125% in these data.
System: P388 leukemia ip, CD2F1 mice, survival T/C
Experiment: NCI In Vivo Anticancer Drug Screen. Data for tumor model P388 Leukemia (intraperitoneal) in CD2F1 (CDF1) mice
Details: endpoint: median survival time, higher = longer survival
Outline: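 Mice carrying the transplanted tumor received test compound or vehicle. Survival was recorded in each group, and the value is the treated-group measurement divided by that of the vehicle-treated control group.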

[1] = dose: 100.0 mg/kg/injection, schedule: Q04DX003 (ip), vehicle: Klucel (hydroxypropylcellulose) (HPC)
[2] = dose: 200.0 mg/kg/injection, schedule: Q04DX003 (ip), vehicle: Klucel (hydroxypropylcellulose) (HPC)
[3] = dose: 400.0 mg/kg/injection, schedule: Q04DX003 (ip), vehicle: Klucel (hydroxypropylcellulose) (HPC)
[4] = dose: 60.0 mg/kg/injection, schedule: Q01DX005 (ip), vehicle: saline with Tween-80
[5] = dose: 120.0 mg/kg/injection, schedule: Q01DX005 (ip), vehicle: saline with Tween-80
[6] = dose: 240.0 mg/kg/injection, schedule: Q01DX005 (ip), vehicle: saline with Tween-80
[7] = dose: 25.0 mg/kg/injection, schedule: Q01DX009 (ip), vehicle: saline with Tween-80
[8] = dose: 50.0 mg/kg/injection, schedule: Q01DX009 (ip), vehicle: saline with Tween-80
[9] = dose: 60.0 mg/kg/injection, schedule: Q01DX005 (ip), vehicle: Klucel (hydroxypropylcellulose) (HPC)
[10] = dose: 240.0 mg/kg/injection, schedule: Q01DX005 (ip), vehicle: Klucel (hydroxypropylcellulose) (HPC)
[11] = dose: 120.0 mg/kg/injection, schedule: Q01DX005 (ip), vehicle: Klucel (hydroxypropylcellulose) (HPC)

Measured: T/C

O=C1C=C(c2ccccc2)CS1
inactive: [1] 101 % of control | [2] 101 % of control | [3] 101 % of control

CCOC(=O)C(C)(NC(=O)c1ccccc1)C(=O)OCC
inactive: dose: 60.0 mg/kg/injection, schedule: Q01DX005 (ip), vehicle: saline 101 % of control and 105 % of control | dose: 120.0 mg/kg/injection, schedule: Q01DX005 (ip), vehicle: saline 109 % of control | dose: 240.0 mg/kg/injection, schedule: Q01DX005 (ip), vehicle: saline 100 % of control and 97 % of control

Cc1cc(C)n2c(-c3ccccc3)c(C)c(C(N)=O)c2n1
inactive: [4] 98 % of control | [5] 99 % of control | [6] 100 % of control

Cc1cc(Cl)cc2c1OCOC2
inactive: dose: 50.0 mg/kg/injection, schedule: Q01DX009 (ip), vehicle: acetone 101 % of control | dose: 100.0 mg/kg/injection, schedule: Q01DX009 (ip), vehicle: acetone 102 % of control

NS(=O)(=O)c1ccc(N=Nc2nc3[nH]c(=O)[nH]c(=O)c3[nH]2)cc1
inactive: dose: 6.25 mg/kg/injection, schedule: Q01DX005 (ip), vehicle: Klucel (hydroxypropylcellulose) (HPC) 106 % of control | dose: 12.5 mg/kg/injection, schedule: Q01DX005 (ip), vehicle: Klucel (hydroxypropylcellulose) (HPC) 102 % of control | dose: 25.0 mg/kg/injection, schedule: Q01DX005 (ip), vehicle: Klucel (hydroxypropylcellulose) (HPC) 107 % of control

CNc1nc(NC)nc(N(C)C=O)n1
inactive: [7] 95 % of control | [8] 90 % of control

COC(=O)c1[nH]c(=O)c(C#N)c(C(=O)OC)c1C(=O)/C=C/c1ccccc1
inactive: [4] 100 % of control | [5] 96 % of control | [6] 90 % of control

Cc1ccnc2n[nH]nc12
inactive: dose: 100.0 mg/kg/injection, schedule: Q04DX002 (ip), vehicle: water 109 % of control | dose: 200.0 mg/kg/injection, schedule: Q04DX002 (ip), vehicle: water 107 % of control | dose: 400.0 mg/kg/injection, schedule: Q04DX002 (ip), vehicle: water 103 % of control

COc1ccc2nc(Cl)c(Br)c(C)c2c1
inactive: [4] 95 % of control | [5] 92 % of control | [6] 90 % of control

CC1(C)COC2(CC3(C)CC(=O)CC3(C)C2)OC1 (configuration not stated)
inactive: [8] 105 % of control | dose: 100.0 mg/kg/injection, schedule: Q01DX009 (ip), vehicle: saline with Tween-80 90 % of control | dose: 200.0 mg/kg/injection, schedule: Q01DX009 (ip), vehicle: saline with Tween-80 102 % of control

COCN1C(=O)N2C(c3ccccc3)(c3ccccc3)C(C(=O)OC)=C(C(=O)OC)P12(c1ccccc1)c1ccccc1
inactive: dose: 15.0 mg/kg/injection, schedule: Q01DX005 (ip), vehicle: Klucel (hydroxypropylcellulose) (HPC) 107 % of control | dose: 30.0 mg/kg/injection, schedule: Q01DX005 (ip), vehicle: Klucel (hydroxypropylcellulose) (HPC) 99 % of control | [9] 91 % of control and 97 % of control | [10] 87 % of control

Cc1cc2nc3ccc(N(C)C)cc3nc2cc1N
inactive: dose: 12.5 mg/kg/injection, schedule: Q01DX005 (ip), vehicle: saline 96 % of control | dose: 25.0 mg/kg/injection, schedule: Q01DX005 (ip), vehicle: saline 100 % of control | dose: 50.0 mg/kg/injection, schedule: Q01DX005 (ip), vehicle: saline with Tween-80 95 % of control | dose: 50.0 mg/kg/injection, schedule: Q01DX005 (ip), vehicle: saline 112 % of control

c1ccc2c3[n+](ccc2c1)CCC[n+]1ccc2ccccc2c1-3
inactive: dose: 3.12 mg/kg/injection, schedule: Q01DX001 (ip), vehicle: saline 106 % of control | dose: 6.25 mg/kg/injection, schedule: Q01DX001 (ip), vehicle: saline 106 % of control | dose: 12.5 mg/kg/injection, schedule: Q01DX001 (ip), vehicle: saline 92 % of control

Oc1cc(O)c2c(c1)OC(c1ccc(O)c(O)c1)C(O)C2O (configuration not stated)
inactive: dose: 50.0 mg/kg/injection, schedule: Q01DX005 (ip), vehicle: saline + Tween-80 + alcohol 98 % of control | dose: 100.0 mg/kg/injection, schedule: Q01DX005 (ip), vehicle: saline + Tween-80 + alcohol 98 % of control | dose: 200.0 mg/kg/injection, schedule: Q01DX005 (ip), vehicle: saline + Tween-80 + alcohol 92 % of control

CC(=O)Nc1ccc(C(C)C)cc1N
inactive: dose: 50.0 mg/kg/injection, schedule: Q01DX005 (ip), vehicle: Klucel (hydroxypropylcellulose) (HPC) 100 % of control | dose: 100.0 mg/kg/injection, schedule: Q01DX005 (ip), vehicle: Klucel (hydroxypropylcellulose) (HPC) 101 % of control | dose: 200.0 mg/kg/injection, schedule: Q01DX005 (ip), vehicle: Klucel (hydroxypropylcellulose) (HPC) 107 % of control

Cc1cc(N(CCCl)CCCl)ccc1N=Nc1ccccc1C(=O)[O-].Cc1cc(N(CCCl)CCCl)ccc1N=Nc1ccccc1C(=O)[O-].[Cu+2]
active: dose: 12.0 mg/kg/injection, schedule: Q04DX003 (ip), vehicle: saline with Tween-80 150 % of control | dose: 12.5 mg/kg/injection, schedule: Q01DX009 (ip), vehicle: saline with Tween-80 209 % of control | dose: 12.5 mg/kg/injection, schedule: Q04DX003 (ip), vehicle: saline with Tween-80 154 % of control | dose: 25.0 mg/kg/injection, schedule: Q04DX003 (ip), vehicle: saline with Tween-80 195 % of control
inactive: [7] 95 % of control | dose: 50.0 mg/kg/injection, schedule: Q04DX003 (ip), vehicle: saline with Tween-80 95 % of control | dose: 375.0 micrograms/kg/injection, schedule: Q04DX003 (ip), vehicle: saline 109 % of control | dose: 750.0 micrograms/kg/injection, schedule: Q04DX003 (ip), vehicle: saline 109 % of control | dose: 1500.0 micrograms/kg/injection, schedule: Q04DX003 (ip), vehicle: saline 104 % of control

COc1cc(-c2oc3c(OC)cc(OC)c(O)c3c(=O)c2OC)cc(OC)c1OC
inactive: dose: 100.0 mg/kg/injection, schedule: Q04DX002 (ip), vehicle: saline with Tween-80 96 % of control | dose: 200.0 mg/kg/injection, schedule: Q04DX002 (ip), vehicle: saline with Tween-80 105 % of control | dose: 400.0 mg/kg/injection, schedule: Q04DX002 (ip), vehicle: saline with Tween-80 96 % of control

O=C(O)c1cnc2cc3c(cc2c1Nc1cccc(Cl)c1)OCO3
inactive: [9] 93 % of control | [11] 105 % of control | [10] 106 % of control

O=S1C2CCC(Cl)C1CCC2Cl (configuration not stated)
inactive: dose: 0.78 mg/kg/injection, schedule: Q01DX009 (ip), vehicle: Klucel (hydroxypropylcellulose) (HPC) 112 % of control | dose: 1.56 mg/kg/injection, schedule: Q01DX009 (ip), vehicle: Klucel (hydroxypropylcellulose) (HPC) 90 % of control

CCC1=NO[C@@H](C)[C@H]1C(=O)OCc1ccccc1
inactive: [4] 106 % of control | [5] 100 % of control | [6] 97 % of control

CCCCCCCCC(=O)Nc1ncc([N+](=O)[O-])s1
inactive: dose: 50.0 mg/kg/injection, schedule: Q01DX009 (ip), vehicle: Klucel (hydroxypropylcellulose) (HPC) 113 % of control | dose: 100.0 mg/kg/injection, schedule: Q01DX009 (ip), vehicle: Klucel (hydroxypropylcellulose) (HPC) 115 % of control | dose: 200.0 mg/kg/injection, schedule: Q01DX009 (ip), vehicle: Klucel (hydroxypropylcellulose) (HPC) 100 % of control

O=C(O)CSc1ccc([N+](=O)[O-])cc1[N+](=O)[O-]
inactive: [9] 107 % of control | [4] 96 % of control | [11] 103 % of control | [5] 86 % of control | [10] 109 % of control | [6] 95 % of control

[CH3][Sn]([CH3])([Cl])[CH2]CC[CH2][Sn]([CH3])([Cl])[Cl]
inactive: dose: 0.78 mg/kg/injection, schedule: Q01DX009 (ip), vehicle: saline 99 % of control | dose: 1.56 mg/kg/injection, schedule: Q01DX009 (ip), vehicle: saline 89 % of control | dose: 3.12 mg/kg/injection, schedule: Q01DX009 (ip), vehicle: saline 89 % of control

COc1ccc2c(CC(=O)O)cc(=O)oc2c1
inactive: [4] 102 % of control | [5] 120 % of control | [6] 99 % of control

COC(=O)c1ccc(SCC2(CCN3C(=O)c4ccccc4C3=O)OCCO2)cc1
inactive: [1] 97 % of control | [2] 96 % of control | [3] 88 % of control

Nc1nc(-c2ccccn2)cc2c(Cl)cccc12
inactive: [4] 86 % of control | [5] 115 % of control | [6] 97 % of control

COc1cc2c3c4c1OCc1c5c(cc(c1-4)CC3[N+](C)(C)CC2)OCO5 (configuration not stated)
inactive: dose: 25.0 mg/kg/injection, schedule: Q01DX001 (ip), vehicle: saline 100 % of control

From PubChem BioAssay AID330 (DTP/NCI, 2004)
